Tests used:
[1] = New Zealand White, rabbit, in vivo, 4 h
Experimental: A 100 microliter/30 G needle Hamilton syringe is used to administer a sub conjunctiva injection (n=2) of 20 microliters of 0.1M DSP at pH 7 into an eye of a New Zealand White Rabbit. The initial dose of DSP is 1.04 mg. […] The process is repeated for a total of 2 trials. About 23 micrograms of the approximate 1.04 mg subconjunctival injection of DSP are recovered from the whole eye after 4 hours. This illustrates the clearance effects of the transscleral pathway; in this case about 97.8 percent of the drug cleared the eye within four hours.

[2] = DSP in eye tissues after passive delivery from six chambered annular lens-shaped housing, immediate release (Example 2); assay type: in vivo, New Zealand White Rabbit; details: rabbit eye, 0.5 M DSP pH 7, 6.47 mgs in each of 3 chambers, housing on eye 20 minutes, 4 hours after application
Experimental: A six chambered annular lens-shaped housing is used to passively administer dexamethasone sodium phosphate (DSP) into the eye for immediate release. Chambers 1, 3, and 5 each contain a 2 mm Avalon Sponge hydrated with 25 μl of hydrogel and are further loaded with 6.47 mgs of 0.5 M DSP at pH 7 in each chamber. […] The process is repeated for a total of 4 trials.

percent of the drug cleared the eye [1]: about 97.8% | DSP Total Drug, Conjunctiva [2]: 6.2 ± 0.8 micrograms | DSP Total Drug, Retina/Choroid [2]: 1.1 ± 0.5 micrograms | DSP Total Drug, Sclera [2]: 4.3 ± 1.0 micrograms | DSP Total Drug, Whole Eye [2]: 14.9 ± 1.1 micrograms
SMILES: C[C@@H]1C[C@H]2[C@@H]3CCC4=CC(=O)C=C[C@]4(C)[C@@]3(F)[C@@H](O)C[C@]2(C)[C@@]1(O)C(=O)COP(=O)(O)O [DSP, dexamethasone sodium phosphate]

From US20090143752A1, “Passive intraocular drug delivery devices and associated methods” (priority 2007, published 2009)
